IC50 data for 66 compounds are collected here from patent publication US12581252B2, “Substituted pyrrolo[3,4-b]pyridines as PI3K-α inhibitors” (Relay Therapeutics, Inc., priority 2020, dated 2026).

A value given as a limit tells only on which side of the number the result lay.

What is called IC50 is the concentration at which inhibition is half-maximal.

This assay deals with H1047R PIK3CA enzyme (Homo sapiens, UniProt P42336, H1047R). Nature of the assay: ADP-Glo Biochemical PIK3CA Kinase Assay.
H1047R PIK3CA enzyme, sequence (P42336 whole entry H1047R): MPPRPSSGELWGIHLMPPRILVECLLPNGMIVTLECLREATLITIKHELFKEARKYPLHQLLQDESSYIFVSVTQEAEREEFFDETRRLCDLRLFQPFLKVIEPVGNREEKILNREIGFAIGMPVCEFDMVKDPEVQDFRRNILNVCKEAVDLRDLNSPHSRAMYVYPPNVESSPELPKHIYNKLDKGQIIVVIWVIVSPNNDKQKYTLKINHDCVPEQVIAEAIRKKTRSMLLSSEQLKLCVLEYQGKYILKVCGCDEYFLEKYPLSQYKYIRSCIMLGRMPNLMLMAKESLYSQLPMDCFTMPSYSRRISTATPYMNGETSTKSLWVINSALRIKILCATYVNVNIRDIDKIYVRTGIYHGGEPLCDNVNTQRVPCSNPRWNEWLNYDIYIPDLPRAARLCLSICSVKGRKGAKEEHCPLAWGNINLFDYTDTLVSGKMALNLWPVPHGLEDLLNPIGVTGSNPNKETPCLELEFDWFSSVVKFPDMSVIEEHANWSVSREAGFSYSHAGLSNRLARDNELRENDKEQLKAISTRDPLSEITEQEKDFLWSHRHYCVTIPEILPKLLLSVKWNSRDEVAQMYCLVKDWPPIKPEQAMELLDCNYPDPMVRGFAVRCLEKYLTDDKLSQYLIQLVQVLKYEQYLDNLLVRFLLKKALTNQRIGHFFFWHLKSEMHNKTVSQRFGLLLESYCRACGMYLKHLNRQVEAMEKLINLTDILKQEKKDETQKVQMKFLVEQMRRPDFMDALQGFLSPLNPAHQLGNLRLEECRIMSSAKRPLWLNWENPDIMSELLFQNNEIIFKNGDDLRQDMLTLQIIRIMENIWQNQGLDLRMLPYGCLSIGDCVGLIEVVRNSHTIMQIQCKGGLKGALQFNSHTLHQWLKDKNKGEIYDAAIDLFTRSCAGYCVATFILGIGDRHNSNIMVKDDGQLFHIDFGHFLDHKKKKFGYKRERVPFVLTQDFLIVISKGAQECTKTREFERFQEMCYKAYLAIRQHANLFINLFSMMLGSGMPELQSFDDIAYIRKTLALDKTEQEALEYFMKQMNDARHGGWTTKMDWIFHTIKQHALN
H1047R PIK3CA enzyme, sequence (P27986 whole entry partner): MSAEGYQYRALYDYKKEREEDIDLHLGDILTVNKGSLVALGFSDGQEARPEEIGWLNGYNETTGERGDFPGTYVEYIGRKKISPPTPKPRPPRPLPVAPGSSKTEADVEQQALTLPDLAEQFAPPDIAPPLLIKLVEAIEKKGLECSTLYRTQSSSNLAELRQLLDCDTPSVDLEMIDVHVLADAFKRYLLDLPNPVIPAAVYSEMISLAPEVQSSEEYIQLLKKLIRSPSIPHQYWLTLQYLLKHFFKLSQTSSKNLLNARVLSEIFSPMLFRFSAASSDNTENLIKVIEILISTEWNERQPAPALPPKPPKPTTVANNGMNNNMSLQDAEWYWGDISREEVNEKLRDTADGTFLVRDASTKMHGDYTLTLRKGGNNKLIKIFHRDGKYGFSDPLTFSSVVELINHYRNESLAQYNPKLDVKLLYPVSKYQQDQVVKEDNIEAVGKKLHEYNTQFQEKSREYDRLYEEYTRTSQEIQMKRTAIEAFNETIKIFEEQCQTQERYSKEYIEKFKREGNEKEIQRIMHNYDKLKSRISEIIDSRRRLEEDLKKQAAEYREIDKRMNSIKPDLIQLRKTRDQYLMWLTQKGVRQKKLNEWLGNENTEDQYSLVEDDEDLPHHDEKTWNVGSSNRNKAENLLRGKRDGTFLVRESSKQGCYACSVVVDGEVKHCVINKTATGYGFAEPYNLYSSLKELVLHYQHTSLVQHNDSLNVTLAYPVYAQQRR
The compound `Cc1ccccc1C1NC(=O)c2cccc(NC(=O)c3nsc4ccc(-c5ccccc5)cc34)c21` (stereo not drawn) [Compound I-378] yielded an IC50 of 1000 to 10000 nM.

Turning to `Cn1cc(-c2cc(NC(=O)c3cc(F)cc(Cl)c3)c3c(n2)C(=O)NC3c2cc(F)ccc2Cl)cn1` (stereo not drawn) [Compound I-379], the IC50 lay in the range of 100 to 500 nM.

Compound `Cc1nn(C)cc1-c1cc(NC(=O)c2cc(F)cc(Cl)c2)c2c(n1)C(=O)NC2c1cc(F)ccc1Cl` (stereo not drawn) [Compound I-380] gave a 50% inhibitory concentration (IC50) of 100 to 500 nM.

Compound `Cc1c(-c2cc(NC(=O)c3cc(F)cc(Cl)c3)c3c(n2)C(=O)NC3c2cc(F)ccc2Cl)cnn1C` (stereo not drawn) [Compound I-381] displayed an IC50 of 100 to 500 nM.

`CC(O)(CO)c1cc(NC(=O)c2cc(F)cc(C(F)(F)F)c2)c2c(c1)C(=O)NC2c1cc(F)ccc1Cl` (stereo not drawn) [Compound I-382]: the IC50 was 100 to 500 nM.

`O=C(Nc1cc(O)cc2c1C(c1cc(F)ccc1Cl)NC2=O)c1cc(F)cc(Cl)c1` (stereo not drawn) [Compound I-383] had an IC50 of at most 100 nM.

On to `Cn1cc(-c2cc(NC(=O)c3cc(F)cc(Cl)c3)c3c(n2)C(=O)N[C@@H]3c2cc(F)ccc2Cl)cn1` [Compound I-384], for which the IC50 was in the range of 1000 to 10000 nM.

`O=C(Nc1cc(B(O)O)cc2c1C(c1cc(F)ccc1Cl)NC2=O)c1cc(F)cc(Cl)c1` (stereo not drawn) [Compound I-385] gave a half-maximal inhibitory concentration (IC50) of at most 100 nM.

In the case of `Cn1cc(-c2cc(NC(=O)c3cc(F)cc(Cl)c3)c3c(n2)C(=O)N[C@H]3c2cc(F)ccc2Cl)cn1` [Compound I-386], the IC50 was at most 100 nM.

Consider `O=C(Nc1cc(Br)cc2c1[C@@H](c1cc(F)ccc1Cl)NC2=O)c1cc(F)cc(C(F)(F)F)c1` [Compound I-387], for which the IC50 was 1000 to 10000 nM.

Compound `O=C(Nc1cc(NC(=O)C2CNC2)cc2c1C(c1cc(F)ccc1Cl)NC2=O)c1cc(F)cc(C(F)(F)F)c1` (stereo not drawn) [Compound I-389] showed an IC50 of 100 to 500 nM.

For `O=C(Nc1cccc2c1C(c1cccc(F)c1)NC2=O)c1cc(F)cc(C(F)(F)F)c1` (stereo not drawn) [Compound I-390], the IC50 lay in the range of 1000 to 10000 nM.

As for `Cc1ccccc1C1NC(=O)c2cccc(NC(=O)c3cc(F)cc(Br)c3)c21` (stereo not drawn) [Compound I-391], the IC50 was in the range of 500 to 1000 nM.

For `O=C1NC(c2ccc3ccccc3c2)c2c(NC(=O)c3nsc4ccccc34)cccc21` (stereo not drawn) [Compound I-392], the IC50 was 10000 to 100000 nM.

In turn, `Nc1cc(NC(=O)c2cc(F)cc(C(F)(F)F)c2)c2c(c1)C(=O)NC2c1ccccc1Cl` (stereo not drawn) [Compound I-393] gave an IC50 of at most 100 nM.

As to `O=C(Nc1cc(Br)cc2c1C(c1ccccc1Cl)NC2=O)c1cc(F)cc(C(F)(F)F)c1` (stereo not drawn) [Compound I-394], the IC50 is 100 to 500 nM.

Consider `CP(C)(=O)c1cc(NC(=O)c2cc(F)cc(C(F)(F)F)c2)c2c(c1)C(=O)NC2c1cc(F)ccc1Cl` (stereo not drawn) [Compound I-395], for which the IC50 was at most 100 nM.

Turning to `Cc1ccccc1[C@H]1NC(=O)c2c(C#N)ccc(NC(=O)c3cc(F)cc(C(F)(F)F)c3)c21` [Compound I-397], the IC50 was in the range of 100 to 500 nM.

Regarding `Cc1ccccc1C1NC(=O)c2cccc(-c3nnc(-c4ccccc4)[nH]3)c21` (stereo not drawn) [Compound I-398], the IC50 was 10000 to 100000 nM.

`O=C(O)Cc1cc(NC(=O)c2cc(F)cc(C(F)(F)F)c2)c2c(c1)C(=O)NC2c1cc(F)ccc1Cl` (stereo not drawn) [Compound I-399] registered an IC50 of at most 100 nM.

In the case of `Cc1ccccc1C1NC(=O)c2cccc(NC(=O)c3nnc4ccc(Cl)cn34)c21` (stereo not drawn) [Compound I-400], the IC50 is 10000 to 100000 nM.

As for `O=C(Nc1cccc2c1C(c1cc(Cl)cc(F)c1F)NC2=O)c1cc(F)cc(C(F)(F)F)c1` (stereo not drawn) [Compound I-401], the IC50 was in the range of 100 to 500 nM.

`O=C1NCc2c(NC(=O)c3coc4ccc(Cl)cc34)cccc21` [Compound I-402]: the IC50 lay within 10000 to 100000 nM.

As to `Cn1cc(C(=O)Nc2cccc3c2CNC3=O)c2ccccc21` [Compound I-403], the IC50 lay in the range of 10000 to 100000 nM.

Regarding `O=C1NCc2c(NC(=O)c3csc4c3CCCC4)cccc21` [Compound I-404], the IC50 lay in the range of 10000 to 100000 nM.

Turning to `Cc1ccc2c(c1)N(C(=O)Nc1cccc3c1CN(C)C3=O)CC2` [Compound I-405], the IC50 lay in the range of 10000 to 100000 nM.

As for `C=CC(=O)Nc1cc(NC(=O)c2cc(F)cc(C(F)(F)F)c2)c2c(c1)C(=O)NC2c1cc(F)ccc1Cl` (stereo not drawn) [Compound I-406], the IC50 is at most 100 nM.

For `O=C(CCl)Nc1cc(NC(=O)c2cc(F)cc(C(F)(F)F)c2)c2c(c1)C(=O)NC2c1cc(F)ccc1Cl` (stereo not drawn) [Compound I-407], the IC50 was at most 100 nM.

For `Cc1ccccc1C1NC(=O)c2cccc(NC(=O)c3cc(F)cc4c(C(=O)C(F)(F)F)c[nH]c34)c21` (stereo not drawn) [Compound I-408], the IC50 fell in the range of 10000 to 100000 nM.

As for `O=C(Nc1cccc2c1C(c1ccc(Br)cc1Cl)NC2=O)c1cc(F)cc(C(F)(F)F)c1` (stereo not drawn) [Compound I-409], the IC50 fell in the range of 1000 to 10000 nM.

Compound `Cc1nn(C)c(C)c1-c1cc(NC(=O)c2cc(F)cc(Cl)c2)c2c(n1)C(=O)NC2c1cc(F)ccc1Cl` (stereo not drawn) [Compound I-410] gave a concentration for half-maximal inhibition (IC50) of 500 to 1000 nM.

`Cc1ccccc1C1NC(=O)c2cccc(NC(=O)c3n[nH]cc3Br)c21` (stereo not drawn) [Compound I-411]: the IC50 was in the range of 10000 to 100000 nM.

For `Cc1ccccc1C1NC(=O)c2cccc(NC(=O)c3n[nH]cc3-c3ccccc3)c21` (stereo not drawn) [Compound I-412], the IC50 was 10000 to 100000 nM.

`Cc1ccccc1C1NC(=O)c2cccc(NC(=O)c3nscc3-c3ccccc3)c21` (stereo not drawn) [Compound I-413]: the IC50 lay in the range of 1000 to 10000 nM.

In turn, `O=C(Nc1cccc2c1C(c1cc(Br)ccc1Cl)NC2=O)c1cc(O)cc(C(F)(F)F)c1` (stereo not drawn) [Compound I-414] yielded an IC50 of 100 to 500 nM.

The compound `O=C(Nc1cccc2c1C(c1cc(O)ccc1Cl)NC2=O)c1cc(O)cc(C(F)(F)F)c1` (stereo not drawn) [Compound I-415] yielded an IC50 of 10000 to 100000 nM.

In turn, `NC1CN(c2cc(NC(=O)c3cc(F)cc(C(F)(F)F)c3)c3c(n2)C(=O)NC3c2cc(F)ccc2Cl)C1` (stereo not drawn) [Compound I-417] came in with an IC50 of 100 to 500 nM.

In turn, `CS(=O)(=O)C1CN(c2cc(NC(=O)c3cc(F)cc(C(F)(F)F)c3)c3c(n2)C(=O)NC3c2cc(F)ccc2Cl)C1` (stereo not drawn) [Compound I-418] yielded an IC50 of 100 to 500 nM.

Turning to `Cc1ccccc1C1NC(=O)c2cc(C3(O)CCC3)cc(NC(=O)c3nsc4ccccc34)c21` (stereo not drawn) [Compound I-419], the IC50 is at most 100 nM.

Regarding `O=C(Nc1cc(C2COC2)cc2c1C(c1cc(F)ccc1Cl)NC2=O)c1cc(F)cc(C(F)(F)F)c1` (stereo not drawn) [Compound I-420], the IC50 is at most 100 nM.

Take `O=C(Nc1cccc2c1C(c1ccc(-c3ccccc3)cc1Cl)NC2=O)c1cc(F)cc(C(F)(F)F)c1` (stereo not drawn) [Compound I-421]: the IC50 lay within 1000 to 10000 nM.

`N#Cc1ccc(C2NC(=O)c3cccc(NC(=O)c4cc(F)cc(C(F)(F)F)c4)c32)c(Cl)c1` (stereo not drawn) [Compound I-422] registered an IC50 of 10000 to 100000 nM.

As to `CC(=O)Nc1cc(NC(=O)c2cc(F)cc(C(F)(F)F)c2)c2c(c1)C(=O)NC2c1cc(F)ccc1Cl` (stereo not drawn) [Compound I-423], the IC50 was at most 100 nM.

As for `O=C(Nc1cccc2c1C(c1ccc(C3CC3)cc1Cl)NC2=O)c1cc(F)cc(C(F)(F)F)c1` (stereo not drawn) [Compound I-424], the half-maximal inhibitory concentration (IC50) was 1000 to 10000 nM.

The compound `Cn1cc(-c2ccc(C3NC(=O)c4cccc(NC(=O)c5cc(F)cc(C(F)(F)F)c5)c43)c(Cl)c2)cn1` (stereo not drawn) [Compound I-425] had an IC50 of 10000 to 100000 nM.

Take `CC(C)(C(=O)O)c1cc(NC(=O)c2cc(F)cc(C(F)(F)F)c2)c2c(c1)C(=O)NC2c1cc(F)ccc1Cl` (stereo not drawn) [Compound I-427]: the concentration for half-maximal inhibition (IC50) lay within 100 to 500 nM.

In turn, `O=C(Nc1cccc2c1C(c1cc(O)ccc1Cl)NC2=O)c1cc(F)cc(C(F)(F)F)c1` (stereo not drawn) [Compound I-428] yielded an IC50 of 1000 to 10000 nM.

`Nc1ccc(Cl)c(C2NC(=O)c3cccc(NC(=O)c4cc(F)cc(C(F)(F)F)c4)c32)c1` (stereo not drawn) [Compound I-429] gave an IC50 of 1000 to 10000 nM.

`O=C1NC(c2cc(F)ccc2Cl)c2c(NC(=O)N3CCC(C(F)(F)F)CC3)cc(Br)cc21` (stereo not drawn) [Compound I-430] registered a concentration for half-maximal inhibition (IC50) of 1000 to 10000 nM.

`O=C(Nc1cccc2c1C(c1cccc3ccccc13)NC2=O)c1cc(F)cc(C(F)(F)F)c1` (stereo not drawn) [Compound I-431] returned an IC50 of 1000 to 10000 nM.

`Cc1ccccc1C1NC(=O)c2cccc(NC(=O)N3CCCCC3)c21` (stereo not drawn) [Compound I-433] gave an IC50 of 10000 to 100000 nM.

Regarding `Cc1ccccc1C1NC(=O)c2c(CCO)ccc(NC(=O)c3nsc4ccccc34)c21` (stereo not drawn) [Compound I-434], the IC50 was at most 100 nM.

Compound `Cc1ccccc1C1NC(=O)c2cccc(NC(=O)c3cccc(C(F)(F)F)c3)c21` (stereo not drawn) [Compound I-435] yielded an IC50 of 1000 to 10000 nM.

In turn, `COc1cc(C(=O)Nc2cc(Br)cc3c2C(c2cc(F)ccc2C(F)F)NC3=O)cc(F)c1F` (stereo not drawn) [Compound I-436] yielded an IC50 of 100 to 500 nM.

`CC(C)(O)Cc1cc(NC(=O)c2cc(F)cc(C(F)(F)F)c2)c2c(c1)C(=O)NC2c1cc(F)ccc1Cl` (stereo not drawn) [Compound I-437] came in with an IC50 of at most 100 nM.

In turn, `CNC(=O)Cc1cc(NC(=O)c2cc(F)cc(C(F)(F)F)c2)c2c(c1)C(=O)NC2c1cc(F)ccc1Cl` (stereo not drawn) [Compound I-438] returned an IC50 of at most 100 nM.

For `CC(C)(O)c1cc(NC(=O)c2cc(F)cc(C(F)(F)F)c2)c2c(c1)C(=O)NC2c1ccccc1Cl` (stereo not drawn) [Compound I-439], the IC50 fell in the range of 100 to 500 nM.

In turn, `O=C(Nc1cnc(NC2COC2)c2c1C(c1cc(F)ccc1Cl)NC2=O)c1cc(F)cc(C(F)(F)F)c1` (stereo not drawn) [Compound I-440] displayed an IC50 of 1000 to 10000 nM.

`O=C(Nc1cc(N2CCC2)nc2c1C(c1cc(F)ccc1Cl)NC2=O)c1cc(F)cc(C(F)(F)F)c1` (stereo not drawn) [Compound I-441] returned an IC50 of at most 100 nM.

Turning to `CC(C)CC1NC(=O)c2cccc(NC(=O)c3cc(F)cc(C(F)(F)F)c3)c21` (stereo not drawn) [Compound I-442], the IC50 lay in the range of 1000 to 10000 nM.

`N#CC1CN(c2cc(NC(=O)c3cc(F)cc(C(F)(F)F)c3)c3c(n2)C(=O)NC3c2cc(F)ccc2Cl)C1` (stereo not drawn) [Compound I-443] yielded an IC50 of at most 100 nM.

`O=C(Nc1cc(CNCc2ccccc2)nc2c1C(c1cc(F)ccc1Cl)NC2=O)c1cc(F)cc(C(F)(F)F)c1` (stereo not drawn) [Compound I-444] returned an IC50 of 100 to 500 nM.

Consider `Cc1ccccc1C1NC(=O)c2cccc(NC(=O)c3nsc4ccc(-c5cnn(C)c5)cc34)c21` (stereo not drawn) [Compound I-445], for which the IC50 fell in the range of 1000 to 10000 nM.

For `O=C(Nc1cccc2c1C(c1cc(Br)ccc1Cl)NC2=O)c1cc(F)cc(C(F)(F)F)c1` (stereo not drawn) [Compound I-446], the IC50 was at most 100 nM.

In the case of `O=C(Nc1cccc2c1C(c1cc(F)ccc1Cl)NC2=O)c1cc(Br)cc(C(F)(F)F)c1` (stereo not drawn) [Compound I-447], the IC50 is 1000 to 10000 nM.

Regarding `O=C(Nc1cccc2c1C(c1cc(F)ccc1Cl)NC2=O)c1cc(O)cc(C(F)(F)F)c1` (stereo not drawn) [Compound I-448], the concentration for half-maximal inhibition (IC50) lay in the range of 500 to 1000 nM.
